Test results taken from ChEMBL document CHEMBL1150175, “Studies on the activities of tannins and related compounds, X. Effects of caffeetannins and related compounds on arachidonate metabolism in human polymorphonuclear leukocytes” (J Nat Prod, 1987).
The source made the active and inactive calls. The rule behind the calls is not given here.

Legend:
[1] = Formation of PGE2 in A-23187-stimulated human polymorphonuclear leukocytes at 100 uM relative to control; format: functional
[2] = Cytotoxicity against human polymorphonuclear leukocytes assessed as occurrence of cell suspension or lactate dehydrogenase release at 1 to 1000 uM
[3] = Inhibition of A23187-induced 12-hydroxy-5,8,10-heptadecatrienoic acid formation in human polymorphonuclear leukocytes; format: functional, cell-based
[4] = Inhibition of A23187-induced 5HETE formation in human polymorphonuclear leukocytes; format: functional, cell-based
Homo sapiens [5] = species: Homo sapiens; test: Inhibition of A23187-induced LTB4 formation in human polymorphonuclear leukocytes at 100 to 1000 uM; format: functional, cell-based
[6] = Formation of PGE2 in A-23187-stimulated human polymorphonuclear leukocytes at 1000 uM relative to control; format: functional
[7] = Formation of 15HETE in A-23187-stimulated human polymorphonuclear leukocytes at 1000 uM relative to control; format: functional
[8] = Inhibition of A23187-induced LTB4 formation in human polymorphonuclear leukocytes; format: functional, cell-based
Homo sapiens [9] = species: Homo sapiens; test: Inhibition of A23187-induced 5HETE formation in human polymorphonuclear leukocytes at 100 to 1000 uM; format: functional, cell-based
Homo sapiens [10] = species: Homo sapiens; test: Enhancement of PGE2 formation in A-23187-stimulated human polymorphonuclear leukocytes at 100 uM; format: functional
[11] = Formation of PGE2 in A-23187-stimulated human polymorphonuclear leukocytes at 10 uM relative to control; format: functional
[12] = Formation of 15HETE in A-23187-stimulated human polymorphonuclear leukocytes at 100 uM relative to control; format: functional
Homo sapiens [13] = species: Homo sapiens; test: Inhibition of A23187-induced PGE2 formation in human polymorphonuclear leukocytes at 1 to 100 uM; format: functional, cell-based
Homo sapiens [14] = species: Homo sapiens; test: Inhibition of A23187-induced 12-hydroxy-5,8,10-heptadecatrienoic acid formation in human polymorphonuclear leukocytes at 1 to 100 uM; format: functional, cell-based
Homo sapiens [15] = species: Homo sapiens; test: Enhancement of PGE2 formation in A-23187-stimulated human polymorphonuclear leukocytes at 10 to 100 uM; format: functional
Homo sapiens [16] = species: Homo sapiens; test: Enhancement of 15HETE formation in A-23187-stimulated human polymorphonuclear leukocytes at 10 to 100 uM; format: functional
Homo sapiens [17] = species: Homo sapiens; test: Inhibition of A23187-induced 12-hydroxy-5,8,10-heptadecatrienoic acid formation in human polymorphonuclear leukocytes at 1000 uM; format: functional, cell-based
[18] = Formation of 15HETE in A-23187-stimulated human polymorphonuclear leukocytes at 10 uM relative to control; format: functional
Homo sapiens [19] = species: Homo sapiens; test: Inhibition of A23187-induced 5HETE formation in human polymorphonuclear leukocytes at 1 to 1000 uM; format: functional, cell-based
Homo sapiens [20] = species: Homo sapiens; test: Enhancement of PGE2 formation in A-23187-stimulated human polymorphonuclear leukocytes at 100 to 1000 uM; format: functional
[21] = Formation of 12-hydroxy-5,8,10-heptadecatrienoic acid in A-23187-stimulated human polymorphonuclear leukocytes at 1000 uM relative to control; format: functional
Homo sapiens [22] = species: Homo sapiens; test: Inhibition of A23187-induced 15HETE formation in human polymorphonuclear leukocytes at 100 to 1000 uM; format: functional, cell-based
[23] = Inhibition of A23187-induced 15HETE formation in human polymorphonuclear leukocytes; format: functional, cell-based
Homo sapiens [24] = species: Homo sapiens; test: Inhibition of A23187-induced 12-hydroxy-5,8,10-heptadecatrienoic acid formation in human polymorphonuclear leukocytes at 100 to 1000 uM; format: functional, cell-based

Compound | IC50 [3] | IC50 ([4]; Homo sapiens, read-out: IC50) | IC50 ([8]; Homo sapiens, read-out: IC50) | Activity [2] | inhibition (Homo sapiens [5]) | Activity [6] | Activity [7] | inhibition (Homo sapiens [9]) | Activity (Homo sapiens [10]) | Activity [12] | Activity (Homo sapiens [20]) | other results
COc1ccc2c(c1)c(CC(=O)O)c(C)n2C(=O)c1ccc(Cl)cc1 |  |  |  |  |  |  |  |  |  |  |  | inhibition (Homo sapiens [13]): Active; inhibition (Homo sapiens [14]): Active
O=C(O)/C=C/c1ccc(O)c(O)c1 [CAFFEIC ACID] |  | 276 µM | 411 µM | Non-toxic |  |  | 96.5% |  |  | 153.7% | Active | Activity (Homo sapiens [15]): Active; Activity (Homo sapiens [16]): Active; inhibition (Homo sapiens [17]): Active; Activity [18]: 136.7%; inhibition (Homo sapiens [19]): Active; IC50 [8]: Dose-dependent effect
O=C(O)CC(OC(=O)/C=C/c1ccc(O)c(O)c1)C(=O)O (centres undefined) [CAFFEOYLMALIC ACID] | 796 µM | 918 µM | 548 µM | Non-toxic | Active |  | 114.8% | Active |  | 141.5% | Active | Activity [18]: 106.3%
O=C(/C=C/c1ccc(O)c(O)c1)O[C@@H]1C[C@](O)(C(=O)O)C[C@@H](O)[C@H]1O [CHLOROGENIC ACID] |  |  |  | Non-toxic |  |  |  |  |  |  |  | 
O=C(/C=C/c1ccc(O)c(O)c1)O[C@H](Cc1ccc(O)c(O)c1)C(=O)O [ROSMARINIC ACID] | 459 µM | 214 µM | 55.6 µM | Non-toxic |  | 48% |  |  | Active |  |  | IC50 [4]: Dose-dependent effect; IC50 [8]: Dose-dependent effect; inhibition (Homo sapiens [22]): Active; IC50 [23]: 455 µM; inhibition (Homo sapiens [24]): Active; Activity [11]: 143.4%

More lines, in order of falling IC50 ([4]; Homo sapiens, read-out: IC50), values ahead:

IC50 [3] | IC50 ([4]; Homo sapiens, read-out: IC50) | IC50 ([8]; Homo sapiens, read-out: IC50) | Compound | Activity [2] | inhibition (Homo sapiens [5]) | Activity [6] | Activity [7] | inhibition (Homo sapiens [9]) | Activity (Homo sapiens [10]) | Activity [12] | Activity (Homo sapiens [20]) | other results
 | 873 µM | 433 µM | O=C(/C=C/c1ccc(O)c(O)c1)OC(C(=O)O)C(O)C(=O)O (centres undefined) [CAFFEOYLTARTARIC ACID] | Non-toxic | Active |  | 55% | Active |  |  | Active | Activity [21]: 57.9%
80 µM | 749 µM | 92.5 µM | O=C(/C=C/c1ccc(O)c(O)c1)O[C@@H]1[C@H](O)C[C@@](O)(C(=O)O)C[C@H]1OC(=O)/C=C/c1ccc(O)c(O)c1 | Non-toxic | Active |  |  | Active | Active |  |  | 
902 µM | 666 µM | 85.9 µM | O=C(/C=C/c1ccc(O)c(O)c1)O[C@@H]1C[C@](O)(C(=O)O)C[C@@H](OC(=O)/C=C/c2ccc(O)c(O)c2)[C@H]1O | Non-toxic | Active | 97.5% | 50.9% | Active | Active | 121.1% |  | Activity [1]: 160.8%
740 µM | 601 µM | 443 µM | O=C(/C=C/c1ccc(O)c(O)c1)O[C@H]1[C@H](O)C[C@](O)(C(=O)O)C[C@H]1OC(=O)/C=C/c1ccc(O)c(O)c1 | Non-toxic | Active | 79.5% | 56.9% | Active | Active |  |  | Activity [1]: 155%; Activity [11]: 126%
